The target in this assay is T1, Human recombinant PTP-1B (Homo sapiens, UniProt P18031).
T1 construct: Human recombinant PTP-1B, containing amino acids 1-321, fused to GST enzyme; GST (glutathione S-transferase)
T1 sequence (P18031 1-321): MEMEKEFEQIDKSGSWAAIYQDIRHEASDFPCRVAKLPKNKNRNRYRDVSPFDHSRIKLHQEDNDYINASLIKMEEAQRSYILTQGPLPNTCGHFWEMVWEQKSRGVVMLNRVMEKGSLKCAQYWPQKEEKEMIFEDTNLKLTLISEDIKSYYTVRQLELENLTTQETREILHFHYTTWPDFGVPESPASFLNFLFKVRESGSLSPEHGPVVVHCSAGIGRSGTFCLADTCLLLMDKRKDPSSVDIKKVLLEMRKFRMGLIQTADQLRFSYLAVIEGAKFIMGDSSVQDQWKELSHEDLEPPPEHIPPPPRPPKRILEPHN
Kind of assay: Assay for PTP-1B Activity (pNPP substrate). The conditions noted are these: human recombinant PTP-1B (1-321) GST fusion, 2 mM pNPP, pH 7.4, 30° C., 20 min; read-out: Activity Code (IC50 range). In kind it is biochemical. In outline: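 GST-fused human PTP-1B (aa 1-321) hydrolysed 2 mM pNPP in 50 mM HEPES pH 7.4, 100 mM NaCl, 2 mM EDTA, 3 mM DTT for 20 min at 30 °C, after a 2 min compound premix. K2CO3 stopped the reaction, with pNP read at 405 nm. Initial rate was plotted against inhibitor concentration.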
With `CC(C)OC(=O)OC(C)OP(=O)(O)C(F)(F)c1ccc(Cn2c(-c3ccc(S(C)(=O)=O)cc3)cn(Cc3ccccc3)c2=O)cc1Br` (centres unmarked) [Compound 79, ({4-[3-Benzyl-5-(4-methanesulfonyl-phenyl)-2-oxo-2,3-dihydro-imidazol-1-ylmethyl]-2-bromo-phenyl}-difluoro-methyl)-phosphonic acid mono-(1-isopropoxy-carbonyloxy-ethyl) ester], the IC50 was in the range of 0.1 to 0.249 µM. The result for `Cn1cc(-c2ccc(C(=O)OCOC(=O)C(C)(C)C)cc2)n(Cc2ccc(C(F)(F)P(=O)(O)OCOC(=O)C(C)(C)C)c(Br)c2)c1=O` [Compound 80, 4-[3-(3-Bromo-4-{[(2,2-dimethyl-propionyloxy-methoxy)-hydroxy-phosphoryl]-difluoro-methyl}-benzyl)-1-methyl-2-oxo-2,3-dihydro-1H-imidazol-4-yl]-benzoic acid 2,2-dimethyl-propionyloxymethyl ester] reads 2.5 to 25 µM. The result for `COC(=O)c1ccc(Cn2ccn(Cc3ccc(C(F)(F)P(=O)(O)O)c(Br)c3)c2=O)cc1` [Compound 81, 4-{3-[3-Bromo-4-(difluoro-phosphono-methyl)-benzyl]-2-oxo-2,3-dihydro-imidazol-1-ylmethyl}-benzoic acid methyl ester] reads 0.25 to 2.5 µM; that for `COC(=O)COc1ccc(Cn2ccn(Cc3ccc(C(F)(F)P(=O)(O)O)c(Br)c3)c2=O)cc1Cl` [Compound 82, (4-{3-[3-Bromo-4-(difluoro-phosphono-methyl)-benzyl]-2-oxo-2,3-dihydro-imidazol-1-ylmethyl}-2-chloro-phenoxy)-acetic acid methyl ester], 0.25 to 2.5 µM; that for `O=C(O)COc1ccc(Cn2ccn(Cc3ccc(C(F)(F)P(=O)(O)O)c(Br)c3)c2=O)cc1Cl` [Compound 83, (4-{3-[3-Bromo-4-(difluoro-phosphono-methyl)-benzyl]-2-oxo-2,3-dihydro-imidazol-1-ylmethyl}-2-chloro-phenoxy)-acetic acid], 0.25 to 2.5 µM. The result for `CCCCCCCCCCCCCCCCOCCCOP(=O)(O)C(F)(F)c1ccc(Cn2c(-c3ccc(S(C)(=O)=O)cc3)c[nH]c2=O)cc1Br` [Compound 84, ({2-Bromo-4-[5-(4-methanesulfonyl-phenyl)-2-oxo-2,3-dihydro-imidazol-1-ylmethyl]-phenyl}-difluoro-methyl)-phosphonic acid mono-(3-hexadecyloxy-propyl) ester] reads 2.5 to 25 µM; that for `O=C(O)c1ccc(Cn2ccn(Cc3ccc(C(F)(F)P(=O)(O)O)c(Br)c3)c2=O)cc1` [Compound 85, 4-{3-[3-Bromo-4-(difluoro-phosphono-methyl)-benzyl]-2-oxo-2,3-dihydro-imidazol-1-ylmethyl}-benzoic acid], 0.25 to 2.5 µM.

Regarding `COC(=O)c1ccc(Cn2c(=O)n(Cc3ccc(C(F)(F)P(=O)(O)O)c(Br)c3)c3ccccc32)cc1` [Compound 86, 4-{3-[3-Bromo-4-(difluoro-phosphono-methyl)-benzyl]-2-oxo-2,3-dihydro-benzoimidazol-1-ylmethyl}-benzoic acid methyl ester], the IC50 lay in the range of 0.25 to 2.5 µM.

For the compound `O=c1[nH]ccn1Cc1ccc(C(F)(F)P(=O)(O)O)c(Br)c1` [Compound 87, {[2-Bromo-4-(2-oxo-2,3-dihydro-imidazol-1-ylmethyl)-phenyl]-difluoro-methyl}-phosphonic acid], the IC50 is 2.5 to 25 µM. Take `O=c1n(Cc2ccc(C(F)(F)P(=O)(O)O)c(Br)c2)ccn1Cc1ccc(C(F)(F)P(=O)(O)O)c(Br)c1` [Compound 88, [(2-Bromo-4-{3-[3-bromo-4-(difluoro-phosphono-methyl)-benzyl]-2-oxo-2,3-dihydro-imidazol-1-ylmethyl}-phenyl)-difluoro-methyl]-phosphonic acid]: the IC50 is less than 0.099 µM. The result for `O=C1N(Cc2ccccc2)CCN1Cc1ccc(C(F)(F)P(=O)(O)O)c(Br)c1` [Compound 89, {[4-(3-Benzyl-2-oxo-imidazolidin-1-ylmethyl)-2-bromo-phenyl]-difluoro-methyl}-phosphonic acid] reads 0.25 to 2.5 µM.

One may read the IC50 as the concentration that gives 50% inhibition.

Source of the values: patent US20080070867A1, “2-Imidazolone and 2-Imidazolidinone Heterocyclic Inhibitors of Tyrosine Phosphatases” (Metabasis Therapeutics, Inc., priority 2005, published 2008).
